Where “and” joins values, the source holds several entries; their conditions need not be identical. Identical values can stand only once. Each block holds one compound with its values, some of them ahead of it.
Experiment: Henry solubility constant Hcp at 298.15 K (mol/(m3 Pa))
[1] = reference: Amoore and Buttery (1978)
[2] = reference: Cetin and Odabasi (2005)
[3] = reference: Charles and Destaillats (2005)
[4] = reference: Shunthirasingham et al. (2013)
[5] = reference: Souchon et al. (2004)
[6] = reference: Feigenbrugel and Le Calvé (2021)
[7] = reference: Christie and Crisp (1967)
[8] = reference: Bowden et al. (1998a)
[9] = reference: Warner et al. (1980)
[10] = reference: Fichan et al. (1999)
[11] = reference: Schuhfried et al. (2011)
[12] = reference: Kawamoto and Urano (1989)
[13] = reference: Murphy et al. (1983a)

Henry solubility constant Hcp (reference: Cosgrove and Walkley (1981)): 2.6e-05 | Henry solubility constant Hcp (reference: Crovetto et al. (1982)): 2.5e-05 | Henry solubility constant Hcp (reference: Krause and Benson (1989)): 2.5e-05 | Henry solubility constant Hcp (reference: Morrison and Johnstone (1954)): 2.4e-05 | Henry solubility constant Hcp (reference: von Antropoff (1910)): 3.4e-05 and 2.8e-05
Structure (SMILES): [Kr] [krypton]

Henry solubility constant Hcp (reference: Nguyen (2013)): 6100
Structure (SMILES): NCCOCCO [diglycolamine]

Henry solubility constant Hcp [1]: 0.49
Structure (SMILES): C=C(C)[C@@H]1CC=C(C)C(=O)C1 [2-methyl-5-(1-methylethenyl)-2-cyclohexen-1-one]

Henry solubility constant Hcp (reference: Maaßen (1995)): 5.4e-05 | Henry solubility constant Hcp (reference: Reichl (1995)): 5.4e-05
Structure (SMILES): C=CC [propene]

Henry solubility constant Hcp (reference: Kim and Kim (2016)): 15
Structure (SMILES): CCCCCCC(=O)O [heptanoic acid]

Henry solubility constant Hcp (reference: Saidman et al. (1966)): 0.00011
Structure (SMILES): C1CC1 [cyclopropane]

Henry solubility constant Hcp (reference: Nguyen (2013)): 200
Structure (SMILES): CN1CCN(C)CC1 [N,N'-dimethylpiperazine]

Henry solubility constant Hcp (reference: Buttery et al. (1971)): 1
Structure (SMILES): C/C=C/C=C/C=O [(E,E)-2,4-hexadienal]

Henry solubility constant Hcp (reference: Hwang et al. (2010)): 0.0031
Structure (SMILES): C=COCCC [propyl vinyl ether]

Henry solubility constant Hcp (reference: Lewis et al. (1987)): 9.4e-05 | Henry solubility constant Hcp (reference: Ramstedt (1911)): 0.0001
Structure (SMILES): [Rn] [radon]

Henry solubility constant Hcp (reference: Wu et al. (2022b)): 0.12
Structure (SMILES): CC(=O)CCC=C(C)C [6-methyl-5-hepten-2-one]

Henry solubility constant Hcp [10]: 0.36
Structure (SMILES): CC1(C)[C@H]2CC[C@](C)(C2)[C@H]1O [(1R)-1,3,3-trimethylbicyclo[2.2.1]heptan-2-ol]

Henry solubility constant Hcp (reference: Olson (1998)): 300
Structure (SMILES): O=CCCCC=O [pentanedial]

Henry solubility constant Hcp (reference: Bernauer and Dohnal (2009)): 2100 | Henry solubility constant Hcp (reference: Kim et al. (2000)): 3100
Structure (SMILES): CN1CCCC1=O [N-methyl-2-pyrrolidone]

Henry solubility constant Hcp (reference: Kwan (2001)): 0.81
Structure (SMILES): O=C(O)C(F)(F)C(F)(F)C(F)(F)F [perfluorobutanoic acid]

Henry solubility constant Hcp (reference: Ondo and Dohnal (2007)): 0.083
Structure (SMILES): C1CCOCC1 [tetrahydropyran]

Henry solubility constant Hcp [12]: 18
Structure (SMILES): O=C1OCc2c(Cl)c(Cl)c(Cl)c(Cl)c21 [4,5,6,7-tetrachlorophthalide]

Henry solubility constant Hcp (reference: Straver and de Loos (2005)): 0.57 | Henry solubility constant Hcp (reference: Wu et al. (2022b)): 3.1
Structure (SMILES): CC(=O)C(C)O (stereo not drawn) [3-hydroxy-2-butanone]

Henry solubility constant Hcp (reference: Nguyen (2013)): 1800
Structure (SMILES): C1CN(CCOCCN2CCOCC2)CCO1 [dimorpholinodiethyl ether]

Henry solubility constant Hcp [5]: 0.014
Structure (SMILES): CCCCCCOC(C)=O [hexyl ethanoate]

Henry solubility constant Hcp (reference: Chai et al. (2005)): 0.068 | Henry solubility constant Hcp (reference: Kim et al. (2000)): 0.062
Structure (SMILES): CCCCCC(C)=O [2-heptanone]

Henry solubility constant Hcp (reference: Haimi et al. (2006)): 0.0048
Structure (SMILES): CCOC(C)(C)CC [2-ethoxy-2-methylbutane]

Henry solubility constant Hcp (reference: Wen and Muccitelli (1979)): 1.2e-07
Structure (SMILES): FC(F)(F)C(F)(F)C(F)(F)F [octafluoropropane]

Henry solubility constant Hcp (reference: Li et al. (2007)): 290
Structure (SMILES): O=C(O)c1ccccc1 [benzenecarboxylic acid]

Henry solubility constant Hcp [5]: 0.026
Structure (SMILES): CCCC(=O)SC [S-methyl butanethioate]

Henry solubility constant Hcp [1]: 12 | Henry solubility constant Hcp (reference: Khan and Brimblecombe (1992)): 12 | Henry solubility constant Hcp (reference: Khan et al. (1995)): 12 | Henry solubility constant Hcp (reference: Kim and Kim (2016)): 27 | Henry solubility constant Hcp (reference: von Hartungen et al. (2004)): 11
Structure (SMILES): CC(C)CC(=O)O [3-methylbutanoic acid]

Henry solubility constant Hcp (reference: Katrib et al. (2003)): 38
Structure (SMILES): COC(=O)CC(=O)OC [propanedioic acid, dimethyl ester]

Henry solubility constant Hcp (reference: Aprea et al. (2007)): 0.011
Structure (SMILES): CCCCCCCC(=O)OCC [ethyl octanoate]

Henry solubility constant Hcp [10]: 1.2
Structure (SMILES): CC(=O)/C=C/C1=C(C)CCCC1(C)C [β-ionone]

Continued, compound first:

Structure (SMILES): BrCCCCCCCCBr [1,8-dibromooctane]
Henry solubility constant Hcp (reference: Sarraute et al. (2006)): 0.013

Structure (SMILES): CCC[N+](=O)[O-] [1-nitropropane]
Henry solubility constant Hcp (reference: Beneš and Dohnal (1999)): 0.13

Structure (SMILES): Cc1cccc(C)n1 [2,6-dimethylpyridine]
Henry solubility constant Hcp (reference: Hawthorne et al. (1985)): 0.66

Structure (SMILES): C1CNCCN1 [1,4-diazacyclohexane]
Henry solubility constant Hcp (reference: Nguyen (2013)): 4500

Structure (SMILES): CC(N)CO (stereo not drawn) [2-amino-1-propanol]
Henry solubility constant Hcp (reference: Nguyen (2013)): 1300

Structure (SMILES): Brc1ccc(Oc2ccc(Br)cc2Br)cc1 [2,4,4'-tribromodiphenyl ether]
Henry solubility constant Hcp [2]: 0.18 | Henry solubility constant Hcp [3]: 0.12 | Henry solubility constant Hcp (reference: Long et al. (2017)): 0.16

Structure (SMILES): CCCCCCO [1-hexanol]
Henry solubility constant Hcp (reference: Gupta et al. (2000)): 0.39 | Henry solubility constant Hcp (reference: Lei et al. (2007)): 0.51 | Henry solubility constant Hcp [4]: 0.57 | Henry solubility constant Hcp [5]: 0.38

Structure (SMILES): CC(=O)C(C)(C)C [3,3-dimethyl-2-butanone]
Henry solubility constant Hcp (reference: Hovorka et al. (2019)): 0.043

Structure (SMILES): Cc1cc(C)nc(Nc2ccccc2)n1 [pyrimethanil]
Henry solubility constant Hcp [6]: 340

Structure (SMILES): CN [methanamine]
Henry solubility constant Hcp [7]: 0.89

Structure (SMILES): ClC1=C(Cl)[C@]2(Cl)[C@H]3[C@H](Cl)[C@@H](Cl)C[C@H]3[C@@]1(Cl)C2(Cl)Cl [trans-chlordane]
Henry solubility constant Hcp (reference: Jantunen and Bidleman (2006)): 0.034

Structure (SMILES): O=C(O)C(Cl)Cl [dichloroethanoic acid]
Henry solubility constant Hcp [8]: 1200

Structure (SMILES): CCC(C)N (stereo not drawn) [2-butanamine]
Henry solubility constant Hcp (reference: Kish et al. (2013)): 0.4

Structure (SMILES): CSSSC [2,3,4-trithiapentane]
Henry solubility constant Hcp (reference: Roberts and Pollien (1997)): 0.021 | Henry solubility constant Hcp [5]: 0.014

Structure (SMILES): [Hg] [mercury]
Henry solubility constant Hcp (reference: Andersson et al. (2008)): 0.0013 | Henry solubility constant Hcp (reference: Sanemasa (1975)): 0.0013

Structure (SMILES): C#CCC [1-butyne]
Henry solubility constant Hcp (reference: Simpson and Lovell (1962)): 0.00072

Structure (SMILES): CNC [dimethylamine]
Henry solubility constant Hcp [7]: 0.56

Structure (SMILES): ClC(Cl)(Cl)C(Cl)(Cl)Cl [hexachloroethane]
Henry solubility constant Hcp (reference: Munz and Roberts (1986)): 0.0034 | Henry solubility constant Hcp (reference: Munz and Roberts (1987)): 0.0025 | Henry solubility constant Hcp [9]: 0.001

Structure (SMILES): Cc1ccc(Br)cc1 [1-bromo-4-methylbenzene]
Henry solubility constant Hcp (reference: Brockbank et al. (2013)): 0.0034

Structure (SMILES): ClC=CCCl [1,3-dichloropropene]
Henry solubility constant Hcp [9]: 0.0028

Structure (SMILES): Cc1cnc(C)cn1 [2,5-dimethylpyrazine]
Henry solubility constant Hcp (reference: Druaux et al. (1998)): 5.5 | Henry solubility constant Hcp (reference: Marin et al. (1999)): 7.1

Structure (SMILES): FC(F)(F)Cl [chlorotrifluoromethane]
Henry solubility constant Hcp (reference: Park et al. (1982)): 7.8e-06 | Henry solubility constant Hcp (reference: Reichl (1995)): 8.9e-06 | Henry solubility constant Hcp (reference: Scharlin and Battino (1994)): 9e-06 | Henry solubility constant Hcp (reference: Scharlin and Battino (1995)): 9e-06

Structure (SMILES): O=C(O)C(F)(F)C(F)(F)C(F)(F)C(F)(F)C(F)(F)F [perfluorohexanoic acid]
Henry solubility constant Hcp (reference: Kwan (2001)): 1.1

Structure (SMILES): CCC(=O)C(C)=O [2,3-pentanedione]
Henry solubility constant Hcp (reference: Wu et al. (2022b)): 0.13

Structure (SMILES): FC(Cl)C(F)(F)C(F)(F)Cl (stereo not drawn) [1,3-dichloro-1,1,2,2,3-pentafluoro-propane]
Henry solubility constant Hcp (reference: Kutsuna (2013)): 0.00011

Structure (SMILES): CCSC [ethyl methyl sulfide]
Henry solubility constant Hcp [11]: 0.0042

Structure (SMILES): CCCCCCCCCCO [1-decanol]
Henry solubility constant Hcp (reference: Lei et al. (2007)): 0.065 | Henry solubility constant Hcp [4]: 0.076

Structure (SMILES): OCC(F)(F)C(F)F [2,2,3,3-tetrafluoro-1-propanol]
Henry solubility constant Hcp (reference: Chen et al. (2003)): 1.4 | Henry solubility constant Hcp (reference: Rochester and Symonds (1973)): 1.6

Structure (SMILES): C1=NCCC1 [1-pyrroline]
Henry solubility constant Hcp [1]: 1.6

Structure (SMILES): CC(Cc1ccc(C(C)(C)C)cc1)CN1CCCCC1 (stereo not drawn) [fenpropidin]
Henry solubility constant Hcp [6]: 710

Structure (SMILES): O=C(O)CF [fluoroethanoic acid]
Henry solubility constant Hcp [8]: 800

Structure (SMILES): C=CC(=C)C [2-methyl-1,3-butadiene]
Henry solubility constant Hcp (reference: Leng et al. (2013)): 0.00034 | Henry solubility constant Hcp (reference: Schuhfried et al. (2015)): 0.0003

Structure (SMILES): [CH3][Hg+].[OH-] [hydroxymethylmercury]
Henry solubility constant Hcp (reference: Iverfeldt and Persson (1985)): 980

Structure (SMILES): C1=Cc2cccc3cccc1c23 [acenaphthylene]
Henry solubility constant Hcp [9]: 0.087

Structure (SMILES): N=C=O [isocyanic acid]
Henry solubility constant Hcp (reference: Roberts et al. (2011)): 0.21

Structure (SMILES): Clc1ccc(Cl)c(-c2ccccc2Cl)c1 [2,2',5-trichlorobiphenyl]
Henry solubility constant Hcp [13]: 0.049

Structure (SMILES): O=S(=O)(F)F [sulfuryl fluoride]
Henry solubility constant Hcp (reference: Cady and Misra (1974)): 8.9e-05

Structure (SMILES): CCCCCN [1-pentanamine]
Henry solubility constant Hcp [1]: 0.31 | Henry solubility constant Hcp [7]: 0.4

Structure (SMILES): NCl [chloramine]
Henry solubility constant Hcp (reference: Holzwarth et al. (1984)): 0.92

Structure (SMILES): N#Cc1c(Cl)c(Cl)c(Cl)c(C#N)c1Cl [2,4,5,6-tetrachloro-1,3-dicyanobenzene]
Henry solubility constant Hcp [12]: 50

Structure (SMILES): CCN(CC)N=O [N-nitrosodiethylamine]
Henry solubility constant Hcp (reference: Klein (1982)): 5.6 | Henry solubility constant Hcp (reference: Thompson et al. (2018)): 0.012

Structure (SMILES): Clc1ccc(-c2c(Cl)ccc(Cl)c2Cl)cc1Cl [2,3,3',4',6-pentachlorobiphenyl]
Henry solubility constant Hcp [13]: 0.027

Structure (SMILES): Brc1cc(Br)c(Oc2cc(Br)c(Br)cc2Br)c(Br)c1 [2,2',4,4',5,6'-hexabromodiphenyl ether]
Henry solubility constant Hcp [2]: 7.3 | Henry solubility constant Hcp (reference: Long et al. (2017)): 7.1

Structure (SMILES): CCCCOCCOC(C)=O [2-butoxyethyl ethanoate]
Henry solubility constant Hcp (reference: Kim et al. (2000)): 1.8

Structure (SMILES): Brc1ccc(Oc2ccccc2)cc1 [4-bromodiphenyl ether]
Henry solubility constant Hcp [3]: 0.058

Structure (SMILES): Clc1ccc(-c2c(Cl)cc(Cl)c(Cl)c2Cl)cc1Cl [2,3,3',4,4',6-hexachlorobiphenyl]
Henry solubility constant Hcp [13]: 0.015

Structure (SMILES): C=CCSC [allyl methyl sulfide]
Henry solubility constant Hcp [11]: 0.0042

— Sander's compilation of Henry's law constants
